Results as given in paper PMC3139435 (Bioorganic & medicinal chemistry letters, 2011).
Where two headings read alike, the source gives them in different places.

How the values were obtained:
[1] = target: T1, human MIF (Homo sapiens, UniProt P14174); assay: Mass spectrometric; details: 30 µM each of MIF and compound, one hour at 25 °C
T1 sequence (P14174 2-115 limits assumed): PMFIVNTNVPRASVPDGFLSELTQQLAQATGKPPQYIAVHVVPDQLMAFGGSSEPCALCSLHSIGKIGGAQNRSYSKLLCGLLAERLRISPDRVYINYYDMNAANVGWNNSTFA

[2] = tested on: MIF-dependent ERK1/2 phosphorylation; details: synovial fibroblasts; for effect on MIF-enhanced ERK phosphorylation (in words): co-administration with MIF, Figure 2
[3] = target: T1, human MIF; details: cited from earlier work

## O=c1c2ccc(F)cc2sn1-c1ccc(Cl)cc1 [1a, 2-(4-chlorophenyl)-6-fluoro-benzo[d]isothiazol-3(2H)-one]
[1]
  fraction of MIF covalently modified: ca. 3%

## N#Cc1ccc(-n2sc3cc(F)ccc3c2=O)cc1 [1c]
[2]
  effect on MIF-enhanced ERK phosphorylation (in words): substantial reduction of phosphorylation

## O=c1c2ccc(O)cc2sn1-c1ccc(Cl)cc1 [1w]
[2]; at 100 nM, added with MIF for 30 minutes
  reduction of ERK phosphorylation: 20%
[2]; at 1 µM, added with MIF for 30 minutes
  reduction of ERK phosphorylation: 35%
[2]
  effect on MIF-enhanced ERK phosphorylation (in words): substantial reduction of phosphorylation

## Ic1cc(-c2ccccc2)ncn1 [4-IPP, 4-iodo-6-phenylpyrimidine]
[3]
  fraction of the protein (MIF) covalently modified: ca. 20%

## COC(=O)CC1CC(c2ccc(O)cc2)=NO1 (stereo not shown) [ISO-1, reference compound]
[2]; at 2 µM, racemate
  reduction of ERK phosphorylation: 19%
